Results: patent US11944635B1, “Compositions and methods for treating epilepsy” (priority 2023, dated 2024)
“Also recorded” adds a separate entry of the source.

Experiment: Hepatic markers (ALT, AST, ALP, GGT, total bilirubin) in the 5-week human study
Type: in vivo
Conditions: 5 weeks, versus placebo
Experimental: Each patient visited the laboratory 6 times in total. During each visit, a sample of venous blood was taken from forearm following an overnight fast and sample of urine was obtained. All blood and urine samples were analyzed in the same certified institutional biochemical laboratory, using the standard operating procedures.
Hepatic (ALT, AST, ALP, GGT, and total bilirubin) markers were also measured.
Moreover, these changes we <1 standard deviation and therefore viewed as not clinically meaningful. As noted earlier, >3 SD over normative values were classified as an AE.

SMILES: C=C(C)[C@@H]1CCC(C)=C[C@H]1c1c(O)cc(CCCCC)cc1O [CBD, 2-[(1R,6R)-6-Isopropenyl-3-methylcyclohex-2-en-1-yl]-5-pentylbenzene-1,3-diol]
- plasma alanine transaminase (ALT): remained effectively unchanged
- plasma alkaline phosphatase (ALP): remained effectively unchanged
- plasma total bilirubin: remained effectively unchanged
- plasma gamma-glutamyl transferase (GGT) (main effect of dose P=0.038): slightly higher; also recorded: remained effectively unchanged
- plasma aspartate transaminase (AST) (main effect of dose P=0.047): higher in the placebo condition; also recorded: remained effectively unchanged
